Test results: publication PMC8777799, “Anti-α-Glucosidase and Antiglycation Activities of α-Mangostin and New Xanthenone Derivatives: Enzymatic Kinetics and Mechanistic Insights through In Vitro Studies” (Molecules, 2022)

Biological target: α-glucosidase
Test: pNPG colorimetric enzyme kinetics (Lineweaver–Burk; IC50 […]), supported by fluorescence quenching and circular dichroism
Assay type: biochemical, Saccharomyces cerevisiae

Structure (SMILES): COc1c(O)cc2oc3cc(O)c(CC=C(C)C)c(O)c3c(=O)c2c1CC=C(C)C [α-mangostin, 1,3,6-trihydroxy-7-methoxy-2,8-bis(3-methylbut-2-en-1-yl)-9H-xanthen-9-one]
- Ki: 30.3 µM
